Laboratory results from patent US6426367B1, “Methods for selectively occluding blood supplies to neoplasias” (EFA Sciences LLC, priority 1999, dated 2002).
Where two headings read alike, the source gives them in different places.

Tests used:
[1] = system: tumor cells; settings: cited from earlier work; for differential cytotoxic effect, tumor cells versus normal cells: well defined culture conditions
[2] = system: tumor-feeding vessels
Method: (§1) Studies were conducted in 5 human patients with stage 4 neoplastic disease. Two of the patients had primary hepatoma (patients 1 and 2), two had giant cell tumor of the bone (patients 3 and 4) and one had renal cell carcinoma (patient 5).
(§2) The lithium salt of GLA was obtained from Scotia Pharmaceuticals, U.K. The PUFA salt was dissolved in sterile saline, sterile phosphate buffered saline (PBS, pH 7.4) or dilute ethanol in saline (final concentration <0.02% ethanol). The final concentration of PUFA in these solutions was approximately 25%. The PUFA solution was mixed with an iodized lymphographic oil (LIPIODOL ULTRA FLUIDE®, Laboratoire Guerbet, Paris, France), in a ratio of between 1:1.5 and 1:3 (volume/volume). In some cases, the PUFA was modified by covalent conjugation (e.g., amide bond) to the iodized lymphographic oil. In other cases the PUFA salt was unmodified, and was diluted directly into the lymphographic agent without conjugation. The PUFA and lymphographic oil mixture was prepared under sterile conditions immediately prior to use.
(§3) Patients were admitted into the hospital for the study. A proximal artery suppling a major portion of the blood supply to the tumor was identified. Catheterization of the major artery from which the proximal artery arises was performed under local anaesthesia. In patients 1 and 2 (with hepatomas), the tip of the catheter was positioned in the right hepatic artery via the right femoral artery. In patient 3 (with giant cell tumor of the right lower end of the femur), the tip of the catheter was positioned in the right femoral/popliteal artery. In patient 4 (with giant cell tumor of the left scapula), the tip of the catheter was positioned in the left subdlavian/axillary arteries. In patient 5 (with left kidney tumor), the tip of the catheter was positioned in the left renal artery. Conjugated PUFA salt was prepared fresh, just prior to injection. Radiographic and CT scan examinations were performed immediately after the injection and at periodic intervals in all the five patients.
(§4) In order to determine how the arterial supply to the tumor tissue was influenced by the injection of PUFA salt, angiography was performed and recorded during and immediately after the procedure, and at periodic intervals thereafter.
(§5) Patients 1 and 2 with hepatoma were administered total doses of 1.6 gm and 0.75 gm respectively (the dose refers to the amount of Li-GLA) of PUFA salt into the right hepatic artery through the right femoral route. Patient 3, with giant cell tumor of the lower end of the right femur, underwent right femoral artery catheterization and the tip of the catheter was positioned in the popliteal artery to deliver 500 mg of PUFA salt. Patient 4, who had giant cell tumor of the left scapula, received PUFA salt by selective cannulation of the left subdlavian artery, through the femoral route, from which the tumor-feeding vessel was arising and was given 660 mg of PUFA salt. Patient 5, with renal tumor, received 750 mg of PUFA salt through the right femoral route into the left renal artery from which the tumor-feeding vessels were arising. In all the patients, the administration of PUFA salt was done as swiftly as possible. During the administration of PUFA salt, the vital signs of each patient were monitored.

[3] = system: stage 4 neoplastic disease (hepatoma, giant cell tumor of the bone, renal cell carcinoma)
Method: as §1, §2, §3
as §5, with “Patient 5, with renal tumor, received 750 mg of PUFA salt through the right femoral route into the left renal artery from which the tumor-feeding vessels were arising. In all the patients, the administration of PUFA salt was done as swiftly as possible.” left out

[4] = Method: as §3, §5
[5] = system: normal arteries including the celiac, subclavian and popliteal arteries
Method: Moreover, in several other patients, a PUFA was injected into normal arteries including the celiac, subclavian and popliteal arteries.
as §4

[6] = system: human gliomas; settings: direct intra-tumoral administration; cited from earlier work
[7] = patient 4, seven and a half years after injection

Compound: CCCCC/C=C\C/C=C\C/C=C\C/C=C\CCCC(=O)O [AA, arachidonic acid]
- differential cytotoxic effect, tumor cells versus normal cells [1]: marked differential cytotoxic effect

Compound: CCCCC/C=C\C/C=C\C/C=C\CCCCC(=O)[O-].[Li+] [PUFA salt, lithium salt of GLA]
- occlusion of the tumor-feeding vessels following PUFA salt injection ([2]; all 5 patients, intra-arterial, 0.5-1.6 gm Li-GLA mixed with or conjugated to LIPIODOL): total occlusion of the tumor-feeding vessels
- speed of occlusion of tumor-feeding vessels ([2]; all types of tumor-feeding vessels, irrespective of size): almost instantaneously
- occlusion of tumor-feeding vessels in third angiogram ([2]; patient 1, hepatoma, 1 week after second dose (0.5 gm), 11th day after first dose): almost complete occlusion
- tumor blush in repeat angiogram ([2]; patient 1, hepatoma, 4 days after first dose): much reduced
- tumor-feeding vessels visible on repeat angiogram ([2]; patient 1, hepatoma, 28 days after injection): no tumor-feeding vessels could be seen
- tumor-feeding vessels occluded following the first injection ([2]; patient 1, hepatoma, first dose 1.1 gm, right hepatic artery): More than 50%
- timing of occlusion of tumor-feeding vessels ([2]; patient 2, hepatoma): essentially simultaneously with the injection
- occlusion of tumor-feeding vessels immediately after injection ([2]; patient 2, hepatoma, 750 mg, right hepatic artery): complete occlusion
- state of occluded tumor-feeding vessels in repeat angiogram ([2]; patient 3, 10 days after injection): remained closed
- occlusion of tumor-feeding vessels immediately after injection ([2]; patient 3, giant cell tumor of right femur, 500 mg, femoral/popliteal artery): Complete occlusion
- occlusion of tumor-feeding vessels immediately after administration ([2]; patient 4, giant cell tumor of left scapula, 660 mg, left subclavian artery): Complete occlusion
- state of tumor-feeding vessels in follow-up angiogram [2, 7]: still occluded
- occlusion of tumor-feeding arteries ([2]; patient 5, renal cell carcinoma, 750 mg, renal artery): Complete occlusion
- weight gain after injection ([3]; patient 1, hepatoma, 6 months following the injection): > 10 kgs
- reduction in the size of the hepatoma ([3]; patient 1, one month after the first injection): More than 50%
- state of the tumor mass at follow-up [3, 7]: completely calcified
- survival after injection ([3]; patient 5, advanced renal cell carcinoma with secondary tumors): 3 months
- side-effects due to the therapy ([4]; all 5 patients): no significant side-effects
- tolerability of the treatment ([4]; all 5 patients): tolerated the treatment well
- biochemical tests after administration ([4]; all patients): normal
- side-effect observed ([4]; during and immediately after the injection): mild feeling of warmth followed by pain at the site of the tumor
- time until pain subsided ([4]; patient 2, mild to moderate pain in the hepatic region, NSAIDs given): 24 to 48 h
- occlusion of normal arteries feeding the normal lower pole of the kidney ([5]; patient 5, 750 mg, renal artery): without any occlusion
- occlusion of normal vasculature feeding non-neoplastic tissues ([5]; patients treated with PUFA salt, angiograms): No occlusion
- spasms or occlusions of normal arteries after injection ([5]; several other patients, injection into celiac, subclavian and popliteal arteries): no spasms or occlusions

Compound: CC/C=C\C/C=C\C/C=C\C/C=C\C/C=C\C/C=C\CCC(=O)O [DHA, docosahexaenoic acid]
- differential cytotoxic effect, tumor cells versus normal cells [1]: marked differential cytotoxic effect

Compound: CC/C=C\C/C=C\C/C=C\C/C=C\C/C=C\CCCC(=O)O [EPA, eicosapentaenoic acid]
- differential cytotoxic effect, tumor cells versus normal cells [1]: marked differential cytotoxic effect

Compound: CCCCC/C=C\C/C=C\C/C=C\CCCCC(=O)O [GLA, gamma-linolenic acid]
- selectivity of tumoricidal action in mixed culture ([1]; normal and tumor cells grown together): more selective tumoricidal action compared to AA and EPA
- differential cytotoxic effect, tumor cells versus normal cells [1]: marked differential cytotoxic effect
- effect on human gliomas [6]: can regress human gliomas
- side-effects [6]: without significant side-effects
